Measurements published in patent US10604489B2, “Compounds for the treatment of pain” (priority 2018, dated 2020).
Read-outs that look alike come from different tables or passages of the source.

Tests used:
μ-receptor = μ-receptor (Homo sapiens (Human), UniProt P35372); experiment: Receptor binding, competitive displacement of [3H]DAMGO; settings: 0.25 nM [3H]DAMGO, CHO cell membrane protein, 60 min at 25° C.
Method in brief: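 Ki derived via Cheng-Prusoff from IC50 (log-probit fit) of displacement of 0.25 nM [3H]DAMGO, 12 concentrations, from human μ-receptor in CHO cell membranes. Binding: 50 mM Tris-HCl pH 7.5, 25 °C, 60 min, 10 μM naloxone defining nonspecific, filter-bound radioactivity counted.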

Male Sprague-Dawley rats [1] = settings: rat; for <60 mmHg @ 100X CFA MEMD: dose 100× CFA MEMD
Male Sprague-Dawley rats [2] = experiment: animal or person; format: in vivo, rat
human μ opioid receptor [3] = target: T1, human μ opioid receptor (Homo sapiens (Human), UniProt P35372); experiment: Functional activity ([35S]GTPγS binding); format: biochemical; settings: [35S]GTPγS 0.080 nM, CHO cell membranes, 60 min at 30° C., filtration
Method in brief: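 Membranes from stably transfected CHO cells (7.5 μg) incubated with 12 test-compound concentrations and 0.080 nM [35S]GTPγS in 50 mM Tris-HCl pH 7.4, 3 mM MgCl2, 0.2 mM EGTA, 3 μM GDP, 100 mM NaCl, 60 min at 30° C. Nonspecific binding defined with 10 μM GTPγS; bound label collected by filtration and scintillation counting.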

human μ opioid receptor [4] = target: T1, human μ opioid receptor; experiment: Alternate functional activity ([35S]GTPγS binding) assay, SPA beads; format: biochemical; settings: alternate assay: [35S]GTPγS 0.020 nM, CHO cell membranes with WGA PVT SPA beads
Experimental: The [^35S]GTPγS assay measures the functional properties of a compound by quantifying the level of G-protein activation following agonist binding in studies using stably transfected cells, and is considered to be a measure of the efficacy of a compound. Membranes from CHO (Chinese Hamster Ovary) cells that stably expressed one type of the cloned human opioid receptor human were used in the experiments. The assay buffer consisted of 50 mM Tris-HCl, pH 7.4, 3 mM MgCl2, 0.2 mM EGTA, 5 μM GDP, and 100 mM NaCl. CHO cell membranes stably expressing the human p opioid receptor were pre-incubated with scintillation proximity assay beads from PerkinElmer® (WGA PVT SPA) for 30 minutes, at 8 µg membrane and […] beads in a volume of 0.1 mL per reaction. In a final volume of 0.2 mL, 11 different concentrations of each test compound were incubated with the membrane-SPA bead mixture and a final concentration of 0.020 nM [35S]GTPγS for 1.5 hours with gentle shaking. Reactions were then incubated for 5 hours. Data are the mean EC50 values ±S.E.M. EC50 values (nM) for compounds 12, 16, 19, 20, 149, 151, 152, 157, 160, 161, 164-169, 172, 173, 180-197, and 199-207 are shown in Table 1.

[5] = maximum pCO2 within 2 hours of administration, dose 10× CFA MEMD, subcutaneous
[6] = maximum pCO2 within 2 hours of administration, subcutaneous
[7] = sc, minimum dose at which maximal reversal of hind paw weight bearing (50±0.5%) was achieved, subcutaneous administration, rat, read-out: MEMD SC CFA
[8] = Rattus norvegicus, sc, read-out: MEMD SC CFA (mg/kg)

SMILES	Ki (μ-receptor) [µM]	minimal effective dose (Male Sprague-Dawley rats [2]; [7]) [mg/kg]	EC50 (human μ opioid receptor [3]) [µM]	other results
COC1(c2cccc(C(N)=O)c2)C2CCCC1CN(C)C2.Cl [Compound 23, 3-((1R,5S,9r)-9-methoxy-3-methyl-3-azabicyclo[3.3.1]nonan-9-yl)benzamide hydrochloride]	< 0.001	0.1	< 0.01	<60 mmHg @ 10X CFA MEMD (Male Sprague-Dawley rats [1]; [5]): + (resulted in a maximum pCO2 value of less than 60 mmHg within 2 hours of administration); <60 mmHg @ 100X CFA MEMD (Male Sprague-Dawley rats [1]; [6]): + (resulted in a maximum pCO2 value of less than 60 mmHg within 2 hours of administration)
COC1(c2cccc(C(N)=O)c2)C2CCCC1CN(C1CC3(COC3)C1)C2.O=C(O)CC(O)C(=O)O [Compound 133, 3-((1R,5S,9r)-9-methoxy-3-(2-oxaspiro[3.3]heptan-6-yl)-3-azabicyclo[3.3.1]nonan-9-yl)benzamide (S)-2-hydroxysuccinate]	< 0.001	1	< 0.01	<60 mmHg @ 10X CFA MEMD (Male Sprague-Dawley rats [1]; [5]): + (resulted in a maximum pCO2 value of less than 60 mmHg within 2 hours of administration)
COC1(c2ccnc(C(N)=O)c2)C2CCCC1CN(Cc1cnn[nH]1)C2.Cl [Compound 108, 4-((1R,5S,9r)-3-((1H-1,2,3-triazol-5-yl)methyl)-9-methoxy-3-azabicyclo[3.3.1]nonan-9-yl)picolinamide hydrochloride]	0.001 to 0.005	0.3	0.01 to 0.075	<60 mmHg @ 10X CFA MEMD (Male Sprague-Dawley rats [1]; [5]): + (resulted in a maximum pCO2 value of less than 60 mmHg within 2 hours of administration); <60 mmHg @ 100X CFA MEMD (Male Sprague-Dawley rats [1]; [6]): + (resulted in a maximum pCO2 value of less than 60 mmHg within 2 hours of administration)
Oc1ccc2c3c1O[C@H]1[C@@H](O)CC[C@@]4(O)[C@@H](C2)N(CC2CCC2)CC[C@]314 [Nalbuphine, reference compound]				minimal effective dose (Male Sprague-Dawley rats [2]; [8]): > 10 mg/kg
CO[C@@]12CC[C@@]3(C[C@@H]1[C@](C)(O)C(C)(C)C)[C@H]1Cc4ccc(O)c5c4[C@@]3(CCN1CC1CC1)[C@H]2O5 [Buprenorphine, reference compound]				MEMD SC CFA (Male Sprague-Dawley rats [2]; rat, in vivo): 0.1 mg/kg
CO[C@@]1(c2ccnc(C(N)=O)c2)[C@@H]2CCC[C@H]1CN(Cc1ncc(C)[nH]1)C2.Cl [Compound 153, 4-((1R,5S,9r)-9-methoxy-3-((5-methyl-1H-imidazol-2-yl)methyl)-3-azabicyclo[3.3.1]nonan-9-yl)picolinamide hydrochloride]	< 0.001		0.01 to 0.075	MEMD SC CFA (Male Sprague-Dawley rats [2]; minimum dose at which maximal reversal of hind paw weight bearing (50±0.5%) was achieved, subcutaneous administration, rat): 1 mg/kg
CN1CC[C@]23c4c5ccc(O)c4O[C@H]2[C@@H](O)C=C[C@H]3[C@H]1C5 [Morphine, reference compound]				<60 mmHg @ 10X CFA MEMD (Male Sprague-Dawley rats [1]; in vivo, sc): − (key: −: resulted in a maximum pCO2 value of greater than 60 mmHg within 2 hours of administration; +: resulted in a maximum pCO2 value of less than 60 mmHg within 2 hours of administration); minimal effective dose (Male Sprague-Dawley rats [2]; [8]): 3 mg/kg
COCCN1CC2CCCC(C1)C2(OC)c1cccc(C(N)=O)c1.Cl [Compound 128, 3-((1R,5S,9r)-9-methoxy-3-(2-methoxyethyl)-3-azabicyclo[3.3.1]nonan-9-yl)benzamide hydrochloride]	< 0.001	1	0.01 to 0.075	
COC1(c2ccnc(C(N)=O)c2)C2CCCC1CN(C[C@H]1CCCO1)C2.Cl (single isomer, unassigned) [Compound 136]		0.3		
COC1(c2cccc(C(N)=O)c2)C2CCCC1CN(CCc1cnn[nH]1)C2.Cl [Compound 155, 3-((1R,5S,9r)-3-(2-(1H-1,2,3-triazol-4-yl)ethyl)-9-methoxy-3-azabicyclo[3.3.1]nonan-9-yl)benzamide hydrochloride]	< 0.001	1	< 0.01	
COC1(c2cccc(C(N)=O)c2)C2CCCC1CN(CCN1C(=O)CCC1=O)C2.Cl [Compound 65, 3-((1R,5S,9r)-3-(2-(2,5-dioxopyrrolidin-1-yl)ethyl)-9-methoxy-3-azabicyclo[3.3.1]nonan-9-yl)benzamide hydrochloride]	< 0.001	0.1	< 0.01	
COC[C@H](C)N1CC2CCCC(C1)C2(OC)c1ccnc(C(N)=O)c1.Cl (single isomer, unassigned) [Compound 61]		0.3		<60 mmHg @ 10X CFA MEMD (Male Sprague-Dawley rats [1]; [5]): + (resulted in a maximum pCO2 value of less than 60 mmHg within 2 hours of administration); <60 mmHg @ 100X CFA MEMD (Male Sprague-Dawley rats [1]; [6]): + (resulted in a maximum pCO2 value of less than 60 mmHg within 2 hours of administration)
COC1(c2cccc(C(N)=O)c2)C2CCCC1CN(C[C@@H]1CCOC1)C2.Cl (single isomer, unassigned) [Compound 143]		1		
COc1ccc2c3c1O[C@H]1C(=O)CC[C@@]4(O)[C@@H](C2)N(C)CC[C@]314 [Oxycodone, reference compound]				<60 mmHg @ 10X CFA MEMD (Male Sprague-Dawley rats [1]; in vivo, sc): − (key: −: resulted in a maximum pCO2 value of greater than 60 mmHg within 2 hours of administration; +: resulted in a maximum pCO2 value of less than 60 mmHg within 2 hours of administration); minimal effective dose (Male Sprague-Dawley rats [2]; [8]): 3 mg/kg
COC1(c2ccnc(C(N)=O)c2)C2CCCC1CN(C[C@@H]1C[C@@H]3C[C@@H]3C1)C2.Cl (stereo partly drawn) [Compound 104, 4-((1R,5S,9R)-3-((1R,3s,5S)-bicyclo[3.1.0]hexan-3-ylmethyl)-9-methoxy-3-azabicyclo[3.3.1]nonan-9-yl)picolinamide hydrochloride]	< 0.001		0.01 to 0.075	minimal effective dose (Male Sprague-Dawley rats [2]; po, minimum dose at which maximal reversal of hind paw weight bearing was achieved, dosed orally, rat, read-out: MEMD SC CFA): ≤ 0.1 mg/kg
COC1(c2cccc(C(N)=O)c2)C2CCCC1CN(CCN1CCNC1=O)C2.Cl [Compound 63, 3-((1R,5S,9r)-9-methoxy-3-(2-(2-oxoimidazolidin-1-yl)ethyl)-3-azabicyclo[3.3.1]nonan-9-yl)benzamide hydrochloride]	< 0.001	> 1	0.01 to 0.075	
COC1(c2ccc(C(N)=O)s2)C2CCCC1CN(C)C2.Cl [Compound 48, 5-((1R,5S,9r)-9-methoxy-3-methyl-3-azabicyclo[3.3.1]nonan-9-yl)thiophene-2-carboxamide hydrochloride]	< 0.001	0.1	0.01 to 0.075	
COC1(c2ccnc(C(N)=O)c2)C2CCCC1CN(Cc1cnc[nH]1)C2.Cl [Compound 96, 4-((1R,5S,9r)-3-((1H-imidazol-5-yl)methyl)-9-methoxy-3-azabicyclo[3.3.1]nonan-9-yl)picolinamide hydrochloride]	< 0.001	1	0.01 to 0.075	
COC1(c2cccc(C(N)=O)c2)C2CCCC1CN(CCC1CC1)C2.Cl [Compound 138, 3-((1R,5S,9r)-3-(2-cyclopropylethyl)-9-methoxy-3-azabicyclo[3.3.1]nonan-9-yl)benzamide hydrochloride]	< 0.001	0.3	< 0.01	
COC1(c2cccc(C(N)=O)c2)C2CCCC1CN(C[C@H]1[C@@H]3COC[C@@H]31)C2.Cl (stereo partly drawn) [Compound 176]	< 0.001	0.1	< 0.01	
CCOC1(c2ccnc(C(N)=O)c2)C2CCCC1CNC2 (stereo not drawn) [Compound 161]		0.3		EC50 (human μ opioid receptor [4]): 0.01 to 0.075 µM
COC1(c2ccnc(C(N)=O)c2)C2CCCC1CN(C1CCOCC1)C2.Cl [Compound 56, 4-((1R,5S,9r)-9-methoxy-3-(tetrahydro-2H-pyran-4-yl)-3-azabicyclo[3.3.1]nonan-9-yl)picolinamide hydrochloride]	> 0.005	3	> 0.075	
COC1(c2cccc(C(N)=O)c2)C2CCCC1CN([C@H]1CCCOC1)C2.Cl (single isomer, unassigned) [Compound 140]		0.1		<60 mmHg @ 10X CFA MEMD (Male Sprague-Dawley rats [1]; [5]): + (resulted in a maximum pCO2 value of less than 60 mmHg within 2 hours of administration)
COC1(c2ccnc(C(N)=O)c2)C2CCCC1CN(C[C@H]1C[C@H]3CC[C@@H](C1)O3)C2 (stereo partly drawn) [Compound 164]				EC50 (human μ opioid receptor [4]): 0.01 to 0.075 µM
